Assay results reported in patent US20250282736A1, “SMALL MOLECULE MODULATORS OF HUMAN PREGNANE X RECEPTOR” (ST. JUDE CHILDREN'S RESEARCH HOSPITAL, priority 2022, published 2025).
Read-outs that look alike come from different tables or passages of the source.

Assays:
hPXR [1] = molecular target: T1, hPXR (Homo sapiens (Human), UniProt O75469); assay: hPXR binding assay; conditions: for inhibition at 10 µM: read-out: Binding (% inhibition at 10 μM)
hPXR [2] = molecular target: T1, hPXR; assay: cell-based hPXR agonistic assay; conditions: for Agonist (% activation at 10 μM): rifampicin at 10 μM as 100% activation, DMSO (0.3%) as 0%
hPXR [3] = molecular target: T1, hPXR; assay: cell-based hPXR antagonistic assay; conditions: for inhibition at 10 µM: read-out: Antagonist (% inhibition at 10 μM)
hPXR [4] = molecular target: T1, hPXR; assay: cell-based hPXR inverse agonistic assay; conditions: for inhibition at 10 µM: read-out: Inverse agonist (% inhibition at 10 μM)
[5] = read-out: Binding (IC50/μM), hPXR binding assay
[6] = read-out: Agonist (EC50/μM), cell-based hPXR agonistic assay

T1 sequence (O75469 whole entry): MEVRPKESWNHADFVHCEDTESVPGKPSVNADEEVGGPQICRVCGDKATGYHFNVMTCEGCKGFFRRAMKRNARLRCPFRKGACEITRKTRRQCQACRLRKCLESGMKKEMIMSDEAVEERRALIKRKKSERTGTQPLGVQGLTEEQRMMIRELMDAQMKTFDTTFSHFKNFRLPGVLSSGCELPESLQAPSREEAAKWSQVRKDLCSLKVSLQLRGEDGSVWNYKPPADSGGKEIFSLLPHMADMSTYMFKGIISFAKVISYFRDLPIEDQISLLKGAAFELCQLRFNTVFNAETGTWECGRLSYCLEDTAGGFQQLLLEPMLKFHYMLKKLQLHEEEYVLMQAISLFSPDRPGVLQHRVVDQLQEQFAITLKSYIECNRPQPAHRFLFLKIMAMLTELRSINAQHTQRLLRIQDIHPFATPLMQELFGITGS

Row | SMILES | inhibition at 10 µM (hPXR [1]) | IC50 (hPXR [1]; [5]) | EC50 (hPXR [2]) | Agonist (% activation at 10 μM) (hPXR [2]) | IC50 (hPXR [3]) | IC50 (hPXR [4]) | IC50 (hPXR [1]) | inhibition at 10 µM (hPXR [3]) | inhibition at 10 µM (hPXR [4]) | EC50 (hPXR [2]; [6])
1 | COc1ccc(-n2nnc(C(=O)Nc3ccc(NC(C)=O)c(C(C)(C)C)c3)c2C)cc1 [E2, N-(4-acetamido-3-(tert-butyl)phenyl)-1-(4-methoxyphenyl)-5-methyl-1H-1,2,3-triazole-4-carboxamide] | 54% | 6.94 ± 0.2 µM | 5.16 ± 1.1 µM | (24 ± 2)% | > 30000 nM | > 30000 nM | – | – | – | –
2 | COc1ccc(-n2nnc(C(=O)Nc3ccc(N)c(C(C)(C)C)c3)c2C)cc1 [E3, N-(4-amino-3-(tert-butyl)phenyl)-1-(4-methoxyphenyl)-5-methyl-1H-1,2,3-triazole-4-carboxamide] | – | – | 0.86 ± 0.12 µM | (29 ± 4)% | > 30000 nM | > 30000 nM | > 30 µM | – | – | –
3 | COc1ccc(-n2nnc(C(=O)Nc3ccccc3)c2C)cc1 [E4] | – | – | > 30 µM | – | > 30000 nM | > 30000 nM | > 30 µM | – | – | –
4 | COc1ccc(-n2nnc(C(=O)Nc3cccc(C(C)(C)C)c3)c2C)cc1 [E5] | – | – | 4.05 ± 1.52 µM | (41 ± 3)% | > 30000 nM | > 30000 nM | > 30 µM | – | – | –
5 | COc1ccc(-n2nnc(C(=O)Nc3ccc(C(C)(C)C)cc3)c2C)cc1 [E6] | – | – | 1.44 ± 0.27 µM | (35 ± 3)% | > 30000 nM | > 30000 nM | > 30 µM | – | – | –
6 | COc1ccc(-n2nnc(C(=O)Nc3ccc(C)cc3)c2C)cc1 [E7] | – | – | 0.79 ± 0.26 µM | (29 ± 5)% | > 30000 nM | > 30000 nM | > 30 µM | – | – | –
7 | COc1ccc(-n2nnc(C(=O)Nc3cccc(C)c3)c2C)cc1 [E8] | – | – | > 30 µM | – | > 30000 nM | > 30000 nM | > 30 µM | – | – | –
8 | CCCCOc1ccc(C(C)(C)C)cc1NC(=O)c1nnn(-c2ccc(OC)cc2)c1C [E9] | – | – | > 30 µM | – | > 30000 nM | > 30000 nM | > 30 µM | – | – | –
9 | COc1ccc(-n2nnc(C(=O)Nc3cc(C)ccc3OC)c2C)cc1 [E10] | 53% | 1.2 ± 0.3 µM | > 30 µM | – | > 30000 nM | > 30000 nM | – | – | – | –
10 | COc1ccc(Cl)cc1-n1nnc(C(=O)Nc2cc(C(C)(C)C)cc(C(C)(C)C)c2)c1C [F1] | 67% | 0.044 ± 0.016 µM | > 30 µM | – | 240 nM | 66 ± 14 nM | – | 102% | 93% | –
11 | COc1ccc(Cl)cc1-n1nnc(C(=O)Nc2cc(N)cc(C(C)(C)C)c2)c1C [F2, N-(3-amino-5-(tert-butyl)phenyl)-1-(5-chloro-2-methoxyphenyl)-5-methyl-1H-1,2,3-triazole-4-carboxamide] | 65% | 7.68 ± 1.45 µM | > 30 µM | – | 18200 ± 11100 nM | 3620 ± 1740 nM | – | 56% | 101% | –
12 | CCCCNc1cc(NC(=O)c2nnn(-c3cc(Cl)ccc3OC)c2C)cc(C(C)(C)C)c1 [F3] | 83% | 0.12 µM | > 30 µM | – | 210 nM | 62 nM | – | 104% | 89% | –
13 | COc1ccc(Cl)cc1-n1nnc(C(=O)Nc2cc(O)cc(C(C)(C)C)c2)c1C [F4] | 84% | 1.64 µM | > 30 µM | – | 1180 ± 210 nM | 290 ± 180 nM | – | 104% | 101% | –
14 | COc1cc(NC(=O)c2nnn(-c3cc(Cl)ccc3OC)c2C)cc(C(C)(C)C)c1 [F5] | 40% | 0.14 µM | > 30 µM | – | 480 ± 140 nM | 180 nM | – | 103% | 80% | –
15 | CCCCOc1cc(NC(=O)c2nnn(-c3cc(Cl)ccc3OC)c2C)cc(C(C)(C)C)c1 [F6] | 61% | 0.042 ± 0.011 µM | > 30 µM | – | 670 ± 160 nM | 220 nM | – | 94% | 65% | –
16 | CCC(C)Oc1ccc(C(C)(C)C)cc1NC(=O)c1nnn(-c2cc(Cl)ccc2OC)c1C (centres unmarked) [F10] | 90% | 0.0076 ± 0.0011 µM | 0.36 ± 0.16 µM | (9 ± 1)% | 19 nM | > 30000 nM | – | 79% | – | –
17 | COc1ccc(C)cc1-n1nnc(C(=O)Nc2ccc(O)c(C(C)(C)C)c2)c1C [G2, N-(3-(tert-butyl)-4-hydroxyphenyl)-1-(2-methoxy-5-methylphenyl)-5-methyl-1H-1,2,3-triazole-4-carboxamide] | 75% | 1.93 ± 0.3 µM | > 30 µM | – | 930 ± 110 nM | 480 nM | – | 108% | 115% | –

Row | SMILES | inhibition at 10 µM (hPXR [1]) | IC50 (hPXR [1]; [5]) | EC50 (hPXR [2]) | Agonist (% activation at 10 μM) (hPXR [2]) | IC50 (hPXR [3]) | IC50 (hPXR [4]) | IC50 (hPXR [1]) | inhibition at 10 µM (hPXR [3]) | inhibition at 10 µM (hPXR [4]) | EC50 (hPXR [2]; [6])
18 | COc1ccc(C)cc1-n1nnc(C(=O)Nc2ccc(OC)c(C(C)(C)C)c2)c1C [G3] | 71% | 1.08 ± 0.36 µM | > 30 µM | – | 1700 nM | 820 nM | – | 105% | 111% | –
19 | COc1ccc(C)cc1-n1nnc(C(=O)Nc2cc(C(C)(C)C)cc(C(C)(C)C)c2)c1C [G4] | 74% | 0.1 µM | > 30 µM | – | 200 nM | 74 ± 13 nM | – | 104% | 101% | –
20 | COc1ccc(C)cc1-n1nnc(C(=O)Nc2cc(N)cc(C(C)(C)C)c2)c1C [G5, N-(3-amino-5-(tert-butyl)phenyl)-1-(2-methoxy-5-methylphenyl)-5-methyl-1H-1,2,3-triazole-4-carboxamide] | 57% | 5.62 ± 0.49 µM | > 30 µM | – | 7050 ± 3480 nM | 18900 ± 3740 nM | – | 79% | 47% | –
21 | CCCCNc1cc(NC(=O)c2nnn(-c3cc(C)ccc3OC)c2C)cc(C(C)(C)C)c1 [G6] | 87% | 0.25 µM | > 30 µM | – | 150 nM | 44 ± 14 nM | – | 104% | 79% | –
22 | COc1ccc(C)cc1-n1nnc(C(=O)Nc2cc(O)cc(C(C)(C)C)c2)c1C [G7, N-(3-(tert-butyl)-5-hydroxyphenyl)-1-(2-methoxy-5-methylphenyl)-5-methyl-1H-1,2,3-triazole-4-carboxamide] | 81% | 2.29 ± 0.83 µM | > 30 µM | – | 1310 ± 230 nM | 640 nM | – | 103% | 75% | –
23 | COc1cc(NC(=O)c2nnn(-c3cc(C)ccc3OC)c2C)cc(C(C)(C)C)c1 [G8] | 57% | 0.53 µM | > 30 µM | – | 640 ± 100 nM | 200 nM | – | 109% | 115% | –
24 | CCCCOc1cc(NC(=O)c2nnn(-c3cc(C)ccc3OC)c2C)cc(C(C)(C)C)c1 [G9] | 62% | 0.21 µM | > 30 µM | – | 400 nM | 150 ± 40 nM | – | 105% | 96% | –
25 | CCC(C)Oc1ccc(C(C)(C)C)cc1NC(=O)c1nnn(-c2cc(C)ccc2OC)c1C (centres unmarked) [G12] | 92% | 0.0076 ± 0.0031 µM | 0.018 µM | (17 ± 1)% | 9.4 nM | > 30000 nM | – | 73% | – | –
26 | CCCCOc1ccc(C(C)(C)C)cc1NC(=O)c1nnn(-c2cc(OC)ccc2F)c1C [H8] | 18% | 0.053 ± 0.036 µM | – | (48 ± 1)% | > 30000 nM | > 30000 nM | – | – | – | 1.48 ± 0.17 µM
27 | CCCCOc1ccc(C(C)(C)C)cc1NC(=O)c1nnn(-c2cc(OC)ccc2Br)c1C [H10] | 28% | 1.31 µM | > 30 µM | – | > 30000 nM | > 30000 nM | – | – | – | –
28 | CCCCOc1ccc(C(C)(C)C)cc1NC(=O)c1nnn(-c2cc(OC)ccc2C)c1C [H11] | 10% | 0.12 µM | 1.68 ± 0.34 µM | (16 ± 6)% | > 30000 nM | > 30000 nM | – | – | – | –
29 | CCCCOc1ccc(C(C)(C)C)cc1NC(=O)c1nnn(-c2cccnc2)c1C [H12] | 75% | 7.6 ± 2.06 µM | – | (44 ± 4)% | > 30000 nM | > 30000 nM | – | – | – | 4.28 ± 1.36 µM
30 | CCCCOc1ccc(C(C)(C)C)cc1NC(=O)c1nnn(-c2ccncc2)c1C [H13] | – | – | > 30 µM | – | > 30000 nM | > 30000 nM | > 30 µM | – | – | –
31 | CCCCOc1ccc(C(C)(C)C)cc1NC(=O)c1nnn(-c2cc(OC)cc(OC)c2)c1C [H16] | – | – | – | (32 ± 4)% | > 30000 nM | > 30000 nM | > 30 µM | – | – | 2.77 ± 0.47 µM
32 | CCCCOc1ccc(C(C)(C)C)cc1NC(=O)c1nnn(-c2ccc3c(c2)OCO3)c1C [H18] | – | – | – | (43 ± 8)% | > 30000 nM | > 30000 nM | > 30 µM | – | – | 4.61 ± 1.18 µM
33 | CCCC(CC)Oc1ccc(C(C)(C)C)cc1NC(=O)c1nnn(-c2ccccc2OC)c1C (centres unmarked) [I1] | 89% | 0.0062 ± 0.0001 µM | 0.01 µM | (8 ± 2)% | 31 nM | > 30000 nM | – | 84% | – | –
34 | CCCC(C)Oc1ccc(C(C)(C)C)cc1NC(=O)c1nnn(-c2ccccc2OC)c1C (centres unmarked) [I2] | 88% | 0.0072 ± 0.0001 µM | 0.049 ± 0.008 µM | (23 ± 19)% | 32 nM | > 30000 nM | – | 78% | – | –
